Measured values as given in US10597388B2, “Pyridazinone herbicides” (FMC CORPORATION, priority 2014, dated 2020).

Tests used:
Experiment in all cases: Test D controlled growth environment herbicide test, pre- and postemergence
Assay type in all cases: in vivo
[1] = tested on: lambsquarters (Chenopodium album); settings: for Lambsquarters plant response rating / Plant response rating (scale of 0 to 100), Lambsquarters: 31 g ai/ha
Procedure, shortened: (§1)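 Species sown in silt loam and sprayed preemergence, or grown in peat-based medium to 2–18 cm (1- to 4-leaf stage) and sprayed postemergence, with compounds in non-phytotoxic solvent plus surfactant. Visual injury scored versus controls after 14–21 d in a controlled environment, 0 (no effect) to 100 (complete control).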

[2] = tested on: speedwell (bird's-eye speedwell, Veronica persica); settings: for Speedwell plant response rating / Plant response rating (scale of 0 to 100), Speedwell: 31 g ai/ha
Procedure, shortened: as §1

[3] = tested on: field poppy (Papaver rhoeas)
Procedure, shortened: as §1

[4] = tested on: wheat, winter (winter wheat, Triticum aestivum); settings: for Wheat, Winter plant response rating / Plant response rating (scale of 0 to 100), Wheat, Winter: 31 g ai/ha
Procedure, shortened: as §1

[5] = tested on: foxtail, green (green foxtail, Setaria viridis); settings: for Foxtail, Green plant response rating / Plant response rating (scale of 0 to 100), Foxtail, Green: 31 g ai/ha
Procedure, shortened: as §1

[6] = tested on: wheat, spring (spring wheat, Triticum aestivum); settings: for Wheat, Spring plant response rating / Plant response rating (scale of 0 to 100), Wheat, Spring: 31 g ai/ha
Procedure, shortened: as §1

[7] = tested on: oilseed rape (Brassica napus); settings: for Oilseed Rape plant response rating / Plant response rating (scale of 0 to 100), Oilseed Rape: 31 g ai/ha
Procedure, shortened: as §1

[8] = tested on: blackgrass (Alopecurus myosuroides)
Procedure, shortened: as §1

[9] = tested on: chamomile (scentless chamomile, Matricaria inodora)
Procedure, shortened: as §1

[10] = tested on: bluegrass (annual bluegrass, Poa annua)
Procedure, shortened: as §1

[11] = tested on: ryegrass, Italian (Italian ryegrass, Lolium multiflorum); settings: for Ryegrass, Italian plant response rating / Plant response rating (scale of 0 to 100), Ryegrass, Italian: 31 g ai/ha
Procedure, shortened: as §1

[12] = tested on: barley, spring (spring barley, Hordeum vulgare)
Procedure, shortened: as §1

[13] = tested on: mustard, wild (wild mustard, Sinapis arvensis); settings: for Mustard, Wild plant response rating / Plant response rating (scale of 0 to 100), Mustard, Wild: 31 g ai/ha
Procedure, shortened: as §1

[14] = Postemergence, scale 0 to 100 (0 no effect, 100 complete control)
[15] = Postemergence, 125 g ai/ha, visual rating on scale 0 (no effect) to 100 (complete control), 14 to 21 d
[16] = Postemergence, 250 g ai/ha, scale 0 to 100 (0 no effect, 100 complete control)
[17] = Preemergence, 62 g ai/ha, scale 0 to 100 (0 no effect, 100 complete control)
[18] = Preemergence, 125 g ai/ha, scale 0 to 100 (0 no effect, 100 complete control)
[19] = Preemergence, 250 g ai/ha, scale 0 to 100 (0 no effect, 100 complete control)
[20] = postemergence, 62 g ai/ha, scale 0 to 100, 0 no effect, 100 complete control
[21] = Postemergence, 31 g ai/ha, scale 0 to 100 (0 no effect, 100 complete control)

COc1nn(C)c(=O)c(-c2c(C)ccc3ccccc23)c1OC(=O)OC(C)C [Compound 36]
10: Plant response rating, Wheat, Spring [6, 16] | Bluegrass plant response rating [10, 21] | Plant response rating, Bluegrass [10, 18] | Plant response rating, Barley, Spring [12, 16]
30: Plant response rating, Wheat, Spring [6, 19] | Plant response rating, Blackgrass [8, 17]
25: Plant response rating, Foxtail, Green [5, 17] | Blackgrass plant response rating [8, 21]
0: Wheat, Winter plant response rating [4, 14] | Plant response rating (scale of 0 to 100), Wheat, Winter ([4]; Preemergence) | Plant response rating, Wheat, Winter [4, 17] | Plant response rating, Wheat, Winter [4, 18] | Plant response rating, Wheat, Winter [4, 19] | Plant response rating, Wheat, Winter [4, 20] | Wheat, Spring plant response rating [6, 14] | Plant response rating, Wheat, Spring [6, 15] | Plant response rating (scale of 0 to 100), Wheat, Spring ([6]; Preemergence) | Plant response rating, Wheat, Spring [6, 17] | Plant response rating, Wheat, Spring [6, 18] | Plant response rating, Wheat, Spring [6, 20] | Plant response rating (scale of 0 to 100), Oilseed Rape ([7]; Preemergence) | Plant response rating, Oilseed Rape [7, 17] | Plant response rating (scale of 0 to 100), Bluegrass ([10]; Preemergence, 31 g ai/ha) | Plant response rating, Barley, Spring [12, 21] | Plant response rating, Barley, Spring [12, 15] | Plant response rating (scale of 0 to 100), Barley, Spring ([12]; Preemergence, 31 g ai/ha) | Plant response rating, Barley, Spring [12, 17] | Plant response rating, Barley, Spring [12, 18] | Barley, Spring plant response rating [12, 19] | Plant response rating, Barley, Spring [12, 20]
75: Plant response rating (scale of 0 to 100), Lambsquarters ([1]; Preemergence) | Plant response rating, Lambsquarters [1, 18] | Plant response rating, Foxtail, Green [5, 19] | Oilseed Rape plant response rating [7, 14] | Ryegrass, Italian plant response rating [11, 14]
80: Plant response rating, Foxtail, Green [5, 15] | Plant response rating, Ryegrass, Italian [11, 20]
65: Plant response rating, Oilseed Rape [7, 19] | Plant response rating, Ryegrass, Italian [11, 17]
90: Plant response rating, Speedwell [2, 20] | Plant response rating, Field Poppy [3, 15] | Plant response rating, Foxtail, Green [5, 16] | Plant response rating, Ryegrass, Italian [11, 15] | Plant response rating, Ryegrass, Italian [11, 16] | Plant response rating, Mustard, Wild [13, 19]
70: Plant response rating, Field Poppy [3, 18] | Plant response rating, Field Poppy [3, 20] | Plant response rating, Foxtail, Green [5, 18] | Plant response rating, Blackgrass [8, 16] | Plant response rating, Ryegrass, Italian [11, 18] | Plant response rating, Ryegrass, Italian [11, 19]
50: Plant response rating, Field Poppy [3, 17] | Blackgrass plant response rating [8, 19]
20: Plant response rating (scale of 0 to 100), Ryegrass, Italian ([11]; Preemergence)
55: Plant response rating, Oilseed Rape [7, 18]
60: Speedwell plant response rating [2, 14] | Field Poppy plant response rating [3, 21]
5: Plant response rating, Wheat, Winter [4, 15]
35: Foxtail, Green plant response rating [5, 14] | Plant response rating, Blackgrass [8, 18] | Plant response rating, Blackgrass [8, 20] | Plant response rating, Bluegrass [10, 16]
95: Lambsquarters plant response rating [1, 14] | Plant response rating, Lambsquarters [1, 17] | Plant response rating, Lambsquarters [1, 19] | Plant response rating, Lambsquarters [1, 20] | Plant response rating (scale of 0 to 100), Speedwell ([2]; Preemergence) | Plant response rating, Oilseed Rape [7, 15] | Chamomile plant response rating [9, 21] | Plant response rating, Chamomile [9, 20]
15: Plant response rating, Wheat, Winter [4, 16] | Plant response rating (scale of 0 to 100), Blackgrass ([8]; Preemergence, 31 g ai/ha) | Plant response rating, Bluegrass [10, 17] | Bluegrass plant response rating [10, 19] | Plant response rating, Bluegrass [10, 20]
40: Plant response rating, Bluegrass [10, 15]
85: Plant response rating, Oilseed Rape [7, 20] | Plant response rating, Mustard, Wild [13, 17] | Plant response rating, Mustard, Wild [13, 18]
100: Plant response rating, Lambsquarters [1, 15] | Plant response rating, Lambsquarters [1, 16] | Plant response rating, Speedwell [2, 15] | Plant response rating, Speedwell [2, 16] | Plant response rating, Speedwell [2, 17] | Plant response rating, Speedwell [2, 18] | Plant response rating, Speedwell [2, 19] | Plant response rating, Field Poppy [3, 16] | Plant response rating, Field Poppy [3, 19] | Plant response rating, Oilseed Rape [7, 16] | Plant response rating, Chamomile [9, 15] | Plant response rating, Chamomile [9, 16] | Mustard, Wild plant response rating [13, 14] | Plant response rating, Mustard, Wild [13, 15] | Plant response rating, Mustard, Wild [13, 16] | Plant response rating, Mustard, Wild [13, 20]
45: Plant response rating (scale of 0 to 100), Foxtail, Green ([5]; Preemergence) | Plant response rating, Foxtail, Green [5, 20] | Plant response rating, Blackgrass [8, 15] | Plant response rating (scale of 0 to 100), Mustard, Wild ([13]; Preemergence)

CCC(=O)Oc1c(C)nn(C)c(=O)c1-c1c(C)sc2ccc(C)cc12 [Compound 42]
80: Lambsquarters plant response rating [1, 14] | Plant response rating, Foxtail, Green [5, 16] | Plant response rating, Blackgrass [8, 15] | Plant response rating (scale of 0 to 100), Blackgrass ([8]; Preemergence, 31 g ai/ha) | Plant response rating, Blackgrass [8, 17] | Bluegrass plant response rating [10, 19] | Plant response rating, Ryegrass, Italian [11, 20] | Plant response rating, Mustard, Wild [13, 16]
100: Plant response rating, Lambsquarters [1, 17] | Plant response rating, Lambsquarters [1, 18] | Plant response rating, Lambsquarters [1, 19] | Plant response rating, Speedwell [2, 19] | Plant response rating, Field Poppy [3, 15] | Plant response rating, Field Poppy [3, 16] | Plant response rating (scale of 0 to 100), Field Poppy ([3]; Preemergence, 31 g ai/ha) | Plant response rating, Field Poppy [3, 17] | Plant response rating, Field Poppy [3, 18] | Plant response rating, Field Poppy [3, 19] | Plant response rating, Foxtail, Green [5, 18] | Plant response rating, Foxtail, Green [5, 19] | Blackgrass plant response rating [8, 19] | Plant response rating, Chamomile [9, 15] | Plant response rating, Chamomile [9, 16] | Plant response rating, Chamomile [9, 17] | Plant response rating, Chamomile [9, 18] | Plant response rating, Chamomile [9, 19] | Plant response rating, Ryegrass, Italian [11, 17] | Plant response rating, Ryegrass, Italian [11, 18] | Plant response rating, Ryegrass, Italian [11, 19]
50: Plant response rating, Speedwell [2, 20] | Plant response rating, Foxtail, Green [5, 20] | Plant response rating, Oilseed Rape [7, 20]
60: Plant response rating, Oilseed Rape [7, 15]
10: Speedwell plant response rating [2, 14] | Plant response rating, Wheat, Winter [4, 15] | Plant response rating, Wheat, Spring [6, 20] | Oilseed Rape plant response rating [7, 14] | Plant response rating, Barley, Spring [12, 16]
85: Plant response rating, Lambsquarters [1, 15] | Plant response rating, Lambsquarters [1, 20] | Plant response rating, Field Poppy [3, 20] | Plant response rating, Blackgrass [8, 16] | Plant response rating, Ryegrass, Italian [11, 15] | Plant response rating, Ryegrass, Italian [11, 16]
0: Wheat, Winter plant response rating [4, 14] | Plant response rating (scale of 0 to 100), Wheat, Winter ([4]; Preemergence) | Plant response rating, Wheat, Winter [4, 17] | Wheat, Spring plant response rating [6, 14] | Plant response rating (scale of 0 to 100), Wheat, Spring ([6]; Preemergence) | Plant response rating, Wheat, Spring [6, 17] | Plant response rating, Wheat, Spring [6, 18] | Plant response rating (scale of 0 to 100), Oilseed Rape ([7]; Preemergence) | Plant response rating, Oilseed Rape [7, 17] | Plant response rating, Oilseed Rape [7, 18] | Plant response rating, Oilseed Rape [7, 19] | Plant response rating, Barley, Spring [12, 21] | Plant response rating (scale of 0 to 100), Barley, Spring ([12]; Preemergence, 31 g ai/ha) | Plant response rating, Barley, Spring [12, 17] | Plant response rating, Barley, Spring [12, 18] | Plant response rating, Barley, Spring [12, 20]
65: Field Poppy plant response rating [3, 21] | Plant response rating, Foxtail, Green [5, 15] | Plant response rating, Foxtail, Green [5, 17] | Plant response rating, Bluegrass [10, 18]
95: Plant response rating, Blackgrass [8, 18] | Plant response rating (scale of 0 to 100), Chamomile ([9]; Preemergence, 31 g ai/ha) | Plant response rating (scale of 0 to 100), Ryegrass, Italian ([11]; Preemergence)
20: Plant response rating, Wheat, Spring [6, 16] | Plant response rating, Wheat, Spring [6, 19] | Plant response rating, Bluegrass [10, 15] | Plant response rating, Bluegrass [10, 20] | Plant response rating, Mustard, Wild [13, 18]
45: Plant response rating, Speedwell [2, 15] | Plant response rating, Speedwell [2, 16] | Plant response rating, Bluegrass [10, 17]
75: Plant response rating, Speedwell [2, 17] | Blackgrass plant response rating [8, 21] | Plant response rating, Blackgrass [8, 20] | Chamomile plant response rating [9, 21] | Ryegrass, Italian plant response rating [11, 14]
15: Plant response rating, Wheat, Winter [4, 16] | Plant response rating, Wheat, Winter [4, 19] | Plant response rating, Wheat, Spring [6, 15] | Bluegrass plant response rating [10, 21] | Plant response rating (scale of 0 to 100), Mustard, Wild ([13]; Preemergence) | Plant response rating, Mustard, Wild [13, 17]
90: Plant response rating, Lambsquarters [1, 16]
35: Foxtail, Green plant response rating [5, 14] | Plant response rating, Bluegrass [10, 16] | Plant response rating (scale of 0 to 100), Bluegrass ([10]; Preemergence, 31 g ai/ha)
70: Plant response rating (scale of 0 to 100), Speedwell ([2]; Preemergence) | Plant response rating, Speedwell [2, 18] | Plant response rating, Oilseed Rape [7, 16] | Plant response rating, Chamomile [9, 20] | Plant response rating, Mustard, Wild [13, 15] | Plant response rating, Mustard, Wild [13, 20]
5: Plant response rating, Wheat, Winter [4, 18] | Plant response rating, Wheat, Winter [4, 20] | Plant response rating, Barley, Spring [12, 15] | Barley, Spring plant response rating [12, 19]
25: Mustard, Wild plant response rating [13, 14] | Plant response rating, Mustard, Wild [13, 19]
30: Plant response rating (scale of 0 to 100), Foxtail, Green ([5]; Preemergence)
98: Plant response rating (scale of 0 to 100), Lambsquarters ([1]; Preemergence)
